Results from patent US5380713A, “Peptide aldehydes as antithrombotic agents” (Bristol-Myers Squibb Company, priority 1994, dated 1995).
Non-standard residues stand in square brackets, D forms with d. Residues, ends and D or L forms follow the SMILES beside them. *: point of attachment. Hydrocinnamoyl = O=C(CCc1ccccc1)*; PhAc = O=C(Cc1ccccc1)*; Bz = O=C(c1ccccc1)*

Columns and labels:
[1] = molecular target: T1, human thrombin (Homo sapiens, UniProt P00734); test: Thrombin clotting time in pooled human plasma, initial effect before incubation; type: biochemical; details: 3.3 U/ml human thrombin, 37° C.
T1 construct: 10U/ml human thrombin
Experimental: Clotting times were measured optically using the Medical Laboratory Automation Electra 700 (MLA 700). Test cuvettes contained 0.1 ml of pre-warmed Owren's buffer, 0.1 ml of the human plasma and 1.2 and 3.0 μl of the test compounds dissolved in water. The cuvette was then vortex mixed and placed on the MLA 700 sample wheel. Clotting time was determined at 37° C. after the addition of 0.1 ml of 10U/ml human thrombin (final concentration=3.3 U/ml).

[2] = system: thrombin clotting time; test: Ex vivo clotting time prolongation after oral dosing of rats; type: in vivo, rat; details: rats dosed orally (p.o.), three per group; clotting time measured ex vivo
Experimental: Human citrated plasma obtained from human volunteers or citrated plasma obtained from dosed animals (prepared as described below). 25 NIH Units/ml human α-thrombin in thrombin buffer for use with rat plasma. 10 NIH Units/ml human α-thrombin in thrombin buffer for use with human plasma. Dosing: Test compound was prepared just prior to dosing. Routinely the drugs are dissolved in water. Occasionally other vehicles are used, such as PEQ-200 stock solutions are vortex mixed and animals are dosed p.o. using a 3 ml syringe with an 18-19 gauge oral gavage needle or i.p. injection. Blood Drawing for Rats: After the appropriate time period, the animals were ether-anesthetized, and blood was drawn by cardiac puncture using 333 μl of 3.8% sodium citrate per 3 ml blood. […] Clotting times were determined by pipetting 0.1 ml of Owren's buffer (pre-warmed to 37° C.) and 0.1 ml of human or rat plasma into yellow sample cuvettes. For studies with human plasma 10 U/ml human thrombin (10 ml) was placed in the reservoir assembly station of the MLA 700. (Medical Laboratory Automation, Electra 700 Reservoir Assembly). For rat studies, the human thrombin concentration was 25 U/ml. The cuvettes were vortexed and then placed on the MLA 700 sample wheel. The coagulation timer (MLA 700) automatically dispenses 0.1 ml human thrombin into the sample in each cuvette. Detection of the fibrin clot was determined optically by the MLA 700. In separate studies, compounds were dosed orally (p.o.) to three rats in each study group. […] Consequently, they are useful in controlling blood coagulation in mammals including humans.

[3] = Clotting time after incubation of compound in water at 40° C. (stability); type: physicochemical; details: 50 μM stock in deionized water, 0.25-24 hours, FIG. 1
Experimental: CLOTTING TIME AFTER INCUBATION OF COMPOUND IN WATER AT 40° C.
Fresh blood was drawn from two human donors into vacutainer tubes containing buffered sodium citrate (16 mg sodium citrate and 2.1 mg citric acid per 4.5 ml of blood). The tubes were centrifugated immediately at 1920×g for 15 minutes to obtain fresh platelet poor plasma. The plasma was pooled and 10 ml aliquots were divided into three test tubes. Two tubes were frozen and maintained at -20° C. for future use and one tube was kept on ice throughout testing.
The compound of Example 14 and D-Phe-Pro-Arg aldehyde: H2 SO4 were prepared as stock solutions (50 μM) in deionized water. […] After the initial effect of these compounds on clotting time was determined, the compounds were placed in a 40° C. water bath for various time intervals (from 0.25-24 hours) and aliquots were withdrawn to determine the effect of the incubation on clotting time.
Clotting times were measured optically using the Medical Laboratory Automation Electra 700 (MLA 700). Test cuvettes contained 0.1 ml of pre-warmed Owren's buffer, 0.1 ml of the human plasma and 1.2 and 3.0 μl of the test compounds dissolved in water. […] Clotting time was determined at 37° C. after the addition of 0.1 ml of 10U/ml human thrombin (final concentration=3.3 U/ml).
The stability of the compounds of the present invention were measured or described in the biological procedures. […]

| Compound | final concentration which initially caused prolongation of clotting time to approximately three times control value [1] | DTT [2] | stability in water (effect of incubation on clotting time) [3] |
| --- | --- | --- | --- |
| N=C(N)NCCC[C@@H](C=O)NC(=O)[C@@H]1CCCN1C(=O)[C@H](N)Cc1ccccc1 [D-Phe-Pro-Arg aldehyde, D-Phe-Pro-Arg aldehyde: H2 SO4, reference compound] | 0.5 µM | – | – |
| Cl.Cl.N=C(N)NCCC[C@@H](C=O)NC(=O)[C@@H]1CCCN1C(=O)CCc1cccnc1 [Example 8, N^α [N-(3-(3-Pyridyl)propanoyl)-L-Prolyl]-L-arginine aldehyde Dihydrochloride] | – | ~ 100 mg/kg | – |
| Cl.N=C(N)NCCC[C@@H](C=O)NC(=O)[C@@H]1CCCN1C(=O)c1ccccc1 [Example 9, Nα-[N-Benzoyl-L-prolyl]-L-arginine aldehyde Hydrochloride] (Bz-Pro-Arg-aldehyde) | – | 150 mg/kg | – |
| Cl.N=C(N)NCCC[C@@H](C=O)NC(=O)[C@@H]1CCCN1C(=O)Cc1ccccc1 [Example 12, N^α -[N-Phenylacetyl-L-prolyl]-L-arginine aldehyde Hydrochloride] (PhAc-Pro-Arg-aldehyde) | – | 100 mg/kg | – |
| Cl.N=C(N)NCCC[C@@H](C=O)NC(=O)[C@@H]1CCCN1C(=O)CCC1CCCCC1 [Example 13, N^α -[N-(3-Cyclohexylpropanoyl)-L-prolyl]-L-arginine aldehyde Hydrochloride] | – | 100 mg/kg | – |
| Cl.N=C(N)NCCC[C@@H](C=O)NC(=O)[C@@H]1CCCN1C(=O)CCc1ccccc1 [Example 14, N^α -[N-(3-Phenylpropanoyl)-L-prolyl]-L-arginine aldehyde Hydrochloride] (Hydrocinnamoyl-Pro-Arg-aldehyde) | 0.2 µM | 60 mg/kg | more stable than the corresponding D-phe compound |
| Cl.Cl.N=C(N)NCCC[C@@H](C=O)NC(=O)[C@@H]1CCCN1C(=O)[C@@H](Cc1ccccc1)NC(=O)CN [Example 16, N^α -[Glycl-D-phenylalanyl-L-prolyl]-L-arginine aldehyde Dihydrochloride] (H-G[dF]PR-aldehyde) | – | 50 mg/kg | – |
| C[C@H](NC(=O)[C@H](N)Cc1ccccc1)C(=O)N[C@H](C=O)CCCNC(=N)N.O=S(=O)(O)O [Example 19, N^α -[D-Phenylalanyl-L-alanyl]-L-arginine aldehyde Sulfate] (H-[dF]-Ala-Arg-aldehyde) | – | 110 mg/kg | – |
